Source: PMC7846792, “Perception of a divergent family of phytocytokines by the Arabidopsis receptor kinase MIK2” (Nature Communications, 2021)
No end group written: not given here.

System: A. thaliana seedlings
Test: Seedling growth inhibition (fresh weight)
Format: in vivo, Arabidopsis thaliana
Details: mock mean = 1
Description: Four-day-old seedlings growing on MS plates were transferred individually into separate wells of transparent 48-well tissue culture plates (Greiner Bio-One) containing 500 μL of liquid MS media with/without elicitor addition. The plates were then transferred back to the growth conditions for an additional 10 days before seedlings were blot-dried and weighed.

For FTGPSGSGHGGGR [SCOOP10], the “Seedling fresh weight (Fig3C), relative to mock” value (Col-0, 1 μM, replicate 1) was 1.053, the “Seedling fresh weight (Fig3C), relative to mock” value (Col-0, 1 μM, replicate 2) was 0.7731 and the “Seedling fresh weight (Fig3C), relative to mock” value (Col-0, 1 μM, replicate 3) was 0.8401. The “Seedling fresh weight (Fig3C), relative to mock” value (Col-0, 1 μM, replicate 4) was 1.102, the “Seedling fresh weight (Fig3C), relative to mock” value (Col-0, 1 μM, replicate 5) was 0.9923 and the “Seedling fresh weight (Fig3C), relative to mock” value (Col-0, 1 μM, replicate 6) was 0.9101. For the same sequence, the “Seedling fresh weight (Fig3C), relative to mock” value (Col-0, 1 μM, replicate 7) was 0.9071, the “Seedling fresh weight (Fig3C), relative to mock” value (Col-0, 1 μM, replicate 8) was 0.8705 and the “Seedling fresh weight (Fig3C), relative to mock” value (Col-0, 1 μM, replicate 9) was 0.8462. The “Seedling fresh weight (Fig3C), relative to mock” value (Col-0, 1 μM, replicate 10) was 0.7792, the “Seedling fresh weight (Fig3C), relative to mock” value (Col-0, 1 μM, replicate 11) was 0.9497 and the “Seedling fresh weight (Fig3C), relative to mock” value (Col-0, 1 μM, replicate 12) was 0.9679. The “Seedling fresh weight (Fig3C), relative to mock” value (Col-0, 10 μM, replicate 1) was 0.6611, the “Seedling fresh weight (Fig3C), relative to mock” value (Col-0, 10 μM, replicate 2) was 0.655 and the “Seedling fresh weight (Fig3C), relative to mock” value (Col-0, 10 μM, replicate 3) was 0.649. For the same sequence, the “Seedling fresh weight (Fig3C), relative to mock” value (Col-0, 10 μM, replicate 4) was 0.4731, the “Seedling fresh weight (Fig3C), relative to mock” value (Col-0, 10 μM, replicate 5) was 0.5034 and the “Seedling fresh weight (Fig3C), relative to mock” value (Col-0, 10 μM, replicate 6) was 0.7187. The “Seedling fresh weight (Fig3C), relative to mock” value (Col-0, 10 μM, replicate 7) was 0.652, the “Seedling fresh weight (Fig3C), relative to mock” value (Col-0, 10 μM, replicate 8) was 0.7096 and the “Seedling fresh weight (Fig3C), relative to mock” value (Col-0, 10 μM, replicate 9) was 0.5944. For the same sequence, the “Seedling fresh weight (Fig3C), relative to mock” value (Col-0, 10 μM, replicate 10) was 0.5519, the “Seedling fresh weight (Fig3C), relative to mock” value (Col-0, 10 μM, replicate 11) was 0.555 and the “Seedling fresh weight (Fig3C), relative to mock” value (Col-0, 10 μM, replicate 12) was 0.6884. For the same sequence, the “Seedling fresh weight (Fig3C), relative to mock” value (mik2-1, 1 μM, replicate 1) was 0.8644, the “Seedling fresh weight (Fig3C), relative to mock” value (mik2-1, 1 μM, replicate 2) was 1.019 and the “Seedling fresh weight (Fig3C), relative to mock” value (mik2-1, 1 μM, replicate 3) was 1.022. For the same sequence, the “Seedling fresh weight (Fig3C), relative to mock” value (mik2-1, 1 μM, replicate 4) was 0.7702, the “Seedling fresh weight (Fig3C), relative to mock” value (mik2-1, 1 μM, replicate 5) was 0.8139 and the “Seedling fresh weight (Fig3C), relative to mock” value (mik2-1, 1 μM, replicate 6) was 0.8307. For the same sequence, the “Seedling fresh weight (Fig3C), relative to mock” value (mik2-1, 1 μM, replicate 7) was 0.9619, the “Seedling fresh weight (Fig3C), relative to mock” value (mik2-1, 1 μM, replicate 8) was 1.049 and the “Seedling fresh weight (Fig3C), relative to mock” value (mik2-1, 1 μM, replicate 9) was 1.086. The “Seedling fresh weight (Fig3C), relative to mock” value (mik2-1, 1 μM, replicate 10) was 1.002, the “Seedling fresh weight (Fig3C), relative to mock” value (mik2-1, 1 μM, replicate 11) was 1.026 and the “Seedling fresh weight (Fig3C), relative to mock” value (mik2-1, 1 μM, replicate 12) was 1.123. For the same sequence, the “Seedling fresh weight (Fig3C), relative to mock” value (mik2-1, 10 μM, replicate 1) was 0.8284, the “Seedling fresh weight (Fig3C), relative to mock” value (mik2-1, 10 μM, replicate 2) was 1.096 and the “Seedling fresh weight (Fig3C), relative to mock” value (mik2-1, 10 μM, replicate 3) was 0.9366. The “Seedling fresh weight (Fig3C), relative to mock” value (mik2-1, 10 μM, replicate 4) was 0.8791, the “Seedling fresh weight (Fig3C), relative to mock” value (mik2-1, 10 μM, replicate 5) was 0.9096 and the “Seedling fresh weight (Fig3C), relative to mock” value (mik2-1, 10 μM, replicate 6) was 0.8453. The “Seedling fresh weight (Fig3C), relative to mock” value (mik2-1, 10 μM, replicate 7) was 0.967, the “Seedling fresh weight (Fig3C), relative to mock” value (mik2-1, 10 μM, replicate 8) was 0.94 and the “Seedling fresh weight (Fig3C), relative to mock” value (mik2-1, 10 μM, replicate 9) was 0.9806. The “Seedling fresh weight (Fig3C), relative to mock” value (mik2-1, 10 μM, replicate 10) was 0.896, the “Seedling fresh weight (Fig3C), relative to mock” value (mik2-1, 10 μM, replicate 11) was 1.031 and the “Seedling fresh weight (Fig3C), relative to mock” value (mik2-1, 10 μM, replicate 12) was 1.096.

For GTGPSHSGHGGSS [SCOOP9], the “Seedling fresh weight (Fig3C), relative to mock” value (Col-0, 1 μM, replicate 1) was 0.7762, the “Seedling fresh weight (Fig3C), relative to mock” value (Col-0, 1 μM, replicate 2) was 0.8462 and the “Seedling fresh weight (Fig3C), relative to mock” value (Col-0, 1 μM, replicate 3) was 0.6605. The “Seedling fresh weight (Fig3C), relative to mock” value (Col-0, 1 μM, replicate 4) was 0.7701, the “Seedling fresh weight (Fig3C), relative to mock” value (Col-0, 1 μM, replicate 5) was 0.4809 and the “Seedling fresh weight (Fig3C), relative to mock” value (Col-0, 1 μM, replicate 6) was 0.5418. The “Seedling fresh weight (Fig3C), relative to mock” value (Col-0, 1 μM, replicate 7) was 0.6179, the “Seedling fresh weight (Fig3C), relative to mock” value (Col-0, 1 μM, replicate 8) was 0.7457 and the “Seedling fresh weight (Fig3C), relative to mock” value (Col-0, 1 μM, replicate 9) was 0.8066. For the same sequence, the “Seedling fresh weight (Fig3C), relative to mock” value (Col-0, 1 μM, replicate 10) was 0.831, the “Seedling fresh weight (Fig3C), relative to mock” value (Col-0, 1 μM, replicate 11) was 0.7549 and the “Seedling fresh weight (Fig3C), relative to mock” value (Col-0, 1 μM, replicate 12) was 0.7275. For the same sequence, the “Seedling fresh weight (Fig3C), relative to mock” value (Col-0, 10 μM, replicate 1) was 0.06065, the “Seedling fresh weight (Fig3C), relative to mock” value (Col-0, 10 μM, replicate 2) was 0.1274 and the “Seedling fresh weight (Fig3C), relative to mock” value (Col-0, 10 μM, replicate 3) was 0.1304. The “Seedling fresh weight (Fig3C), relative to mock” value (Col-0, 10 μM, replicate 4) was 0.1061, the “Seedling fresh weight (Fig3C), relative to mock” value (Col-0, 10 μM, replicate 5) was 0.1395 and the “Seedling fresh weight (Fig3C), relative to mock” value (Col-0, 10 μM, replicate 6) was 0.08795. The “Seedling fresh weight (Fig3C), relative to mock” value (Col-0, 10 μM, replicate 7) was 0.1759, the “Seedling fresh weight (Fig3C), relative to mock” value (Col-0, 10 μM, replicate 8) was 0.2365 and the “Seedling fresh weight (Fig3C), relative to mock” value (Col-0, 10 μM, replicate 9) was 0.1395. For the same sequence, the “Seedling fresh weight (Fig3C), relative to mock” value (Col-0, 10 μM, replicate 10) was 0.2032, the “Seedling fresh weight (Fig3C), relative to mock” value (Col-0, 10 μM, replicate 11) was 0.1789 and the “Seedling fresh weight (Fig3C), relative to mock” value (Col-0, 10 μM, replicate 12) was 0.1425. For the same sequence, the “Seedling fresh weight (Fig3C), relative to mock” value (mik2-1, 1 μM, replicate 1) was 0.8374, the “Seedling fresh weight (Fig3C), relative to mock” value (mik2-1, 1 μM, replicate 2) was 1.059 and the “Seedling fresh weight (Fig3C), relative to mock” value (mik2-1, 1 μM, replicate 3) was 0.8173. The “Seedling fresh weight (Fig3C), relative to mock” value (mik2-1, 1 μM, replicate 4) was 0.935, the “Seedling fresh weight (Fig3C), relative to mock” value (mik2-1, 1 μM, replicate 5) was 0.9081 and the “Seedling fresh weight (Fig3C), relative to mock” value (mik2-1, 1 μM, replicate 6) was 0.9484. For the same sequence, the “Seedling fresh weight (Fig3C), relative to mock” value (mik2-1, 1 μM, replicate 7) was 1.0157, the “Seedling fresh weight (Fig3C), relative to mock” value (mik2-1, 1 μM, replicate 8) was 1.056 and the “Seedling fresh weight (Fig3C), relative to mock” value (mik2-1, 1 μM, replicate 9) was 0.972. The “Seedling fresh weight (Fig3C), relative to mock” value (mik2-1, 1 μM, replicate 10) was 1.002, the “Seedling fresh weight (Fig3C), relative to mock” value (mik2-1, 1 μM, replicate 11) was 1.066 and the “Seedling fresh weight (Fig3C), relative to mock” value (mik2-1, 1 μM, replicate 12) was 1.039. The “Seedling fresh weight (Fig3C), relative to mock” value (mik2-1, 10 μM, replicate 1) was 0.8757, the “Seedling fresh weight (Fig3C), relative to mock” value (mik2-1, 10 μM, replicate 2) was 0.9704 and the “Seedling fresh weight (Fig3C), relative to mock” value (mik2-1, 10 μM, replicate 3) was 1.224. The “Seedling fresh weight (Fig3C), relative to mock” value (mik2-1, 10 μM, replicate 4) was 0.9062, the “Seedling fresh weight (Fig3C), relative to mock” value (mik2-1, 10 μM, replicate 5) was 0.9941 and the “Seedling fresh weight (Fig3C), relative to mock” value (mik2-1, 10 μM, replicate 6) was 0.8622. The “Seedling fresh weight (Fig3C), relative to mock” value (mik2-1, 10 μM, replicate 7) was 0.9772, the “Seedling fresh weight (Fig3C), relative to mock” value (mik2-1, 10 μM, replicate 8) was 0.9028 and the “Seedling fresh weight (Fig3C), relative to mock” value (mik2-1, 10 μM, replicate 9) was 0.94. For the same sequence, the “Seedling fresh weight (Fig3C), relative to mock” value (mik2-1, 10 μM, replicate 10) was 1.021, the “Seedling fresh weight (Fig3C), relative to mock” value (mik2-1, 10 μM, replicate 11) was 0.9062 and the “Seedling fresh weight (Fig3C), relative to mock” value (mik2-1, 10 μM, replicate 12) was 0.9298.
